Measurements published in US20260347361A1, “LRRK2 INHIBITORS AND USES THEREOF” (NEURON23, INC, priority 2022, published 2026).

Target: T1, wt human LRRK2 (Homo sapiens, UniProt Q5S007)
T1 construct: wt human LRRK2, catalytic site, catalytic site (ThermoFisher/USA); purchased ThermoFisher
Assay: TR-FRET LanthaScreen Tb Kinase Activity Assay, inhibition of LRRK2 kinase
Type: biochemical
Settings: 2 nM wt human LRRK2, 400 nM fluorescein-ERM (LRRKtide) peptide, 38 µM ATP, 15 min pre-incubation, 120 min at room temperature
Procedure: In Table 2, activity is provided as the following: “+++”=IC50 less than 50 nM; “++”=IC50 between 50 nM and 200 nM; “+”=IC50> or =200 nM.
The compounds listed in Table 2 were tested for their inhibitory effect on LRRK2 kinase according to the following procedures.
The protocol for basic TR-FRET LanthaScreen Tb Kinase Activity Assay inhibitor studies were as follows. LanthaScreen Kinase Activity Assays (ThermoFisher/USA) to evaluate inhibitors were performed by addition of 100 nl of test compound in corresponding DMSO dilutions/5 μl of kinase/fluorescein-ERM(LRRKtide) peptide mixture, Compound & kinase were pre-incubated for 15 minutes, then 5 μl of ATP into 384 well small volume plates. After incubation for 120 minutes at room temperature, the detection reagents containing Tb-anti-pLRRKtide antibody were added to monitor phosphorylation level of peptide. Then, after 60 min minutes incubation at room temperature plates were read in Envision. Data analysis of emission ratios was according to LanthaScreen Tb Kinase Activity Assay protocol.
Kinase and assay components were adjusted to final concentrations according to the kit protocol. For LRRK2: 2 nM wt human LRRK2, catalytic site, catalytic site (ThermoFisher/USA), 400 nM peptide, 38 µM ATP in 1× Kinase Buffer A.
Basic protocol for TR-FRET LanthaScreen Tb Kinase Activity Assay inhibitor studies involved two steps:
Enzymatic step: Addition of […] of test compound in corresponding DMSO dilutions, 5 μL of kinase/substrate mixture, 5 μL of ATP into 384 well small volume plates. Incubation for 120 minutes at room temperature.
Detection step: Addition of 10 μL EDTA & antibody, read plate after 60 minutes. Data analysis of emission ratios according to KinEASE assay protocol.
Kinase and assay components were adjusted to final concentrations according to the kit protocol.

T1 sequence (Q5S007 970-2527 limits assumed): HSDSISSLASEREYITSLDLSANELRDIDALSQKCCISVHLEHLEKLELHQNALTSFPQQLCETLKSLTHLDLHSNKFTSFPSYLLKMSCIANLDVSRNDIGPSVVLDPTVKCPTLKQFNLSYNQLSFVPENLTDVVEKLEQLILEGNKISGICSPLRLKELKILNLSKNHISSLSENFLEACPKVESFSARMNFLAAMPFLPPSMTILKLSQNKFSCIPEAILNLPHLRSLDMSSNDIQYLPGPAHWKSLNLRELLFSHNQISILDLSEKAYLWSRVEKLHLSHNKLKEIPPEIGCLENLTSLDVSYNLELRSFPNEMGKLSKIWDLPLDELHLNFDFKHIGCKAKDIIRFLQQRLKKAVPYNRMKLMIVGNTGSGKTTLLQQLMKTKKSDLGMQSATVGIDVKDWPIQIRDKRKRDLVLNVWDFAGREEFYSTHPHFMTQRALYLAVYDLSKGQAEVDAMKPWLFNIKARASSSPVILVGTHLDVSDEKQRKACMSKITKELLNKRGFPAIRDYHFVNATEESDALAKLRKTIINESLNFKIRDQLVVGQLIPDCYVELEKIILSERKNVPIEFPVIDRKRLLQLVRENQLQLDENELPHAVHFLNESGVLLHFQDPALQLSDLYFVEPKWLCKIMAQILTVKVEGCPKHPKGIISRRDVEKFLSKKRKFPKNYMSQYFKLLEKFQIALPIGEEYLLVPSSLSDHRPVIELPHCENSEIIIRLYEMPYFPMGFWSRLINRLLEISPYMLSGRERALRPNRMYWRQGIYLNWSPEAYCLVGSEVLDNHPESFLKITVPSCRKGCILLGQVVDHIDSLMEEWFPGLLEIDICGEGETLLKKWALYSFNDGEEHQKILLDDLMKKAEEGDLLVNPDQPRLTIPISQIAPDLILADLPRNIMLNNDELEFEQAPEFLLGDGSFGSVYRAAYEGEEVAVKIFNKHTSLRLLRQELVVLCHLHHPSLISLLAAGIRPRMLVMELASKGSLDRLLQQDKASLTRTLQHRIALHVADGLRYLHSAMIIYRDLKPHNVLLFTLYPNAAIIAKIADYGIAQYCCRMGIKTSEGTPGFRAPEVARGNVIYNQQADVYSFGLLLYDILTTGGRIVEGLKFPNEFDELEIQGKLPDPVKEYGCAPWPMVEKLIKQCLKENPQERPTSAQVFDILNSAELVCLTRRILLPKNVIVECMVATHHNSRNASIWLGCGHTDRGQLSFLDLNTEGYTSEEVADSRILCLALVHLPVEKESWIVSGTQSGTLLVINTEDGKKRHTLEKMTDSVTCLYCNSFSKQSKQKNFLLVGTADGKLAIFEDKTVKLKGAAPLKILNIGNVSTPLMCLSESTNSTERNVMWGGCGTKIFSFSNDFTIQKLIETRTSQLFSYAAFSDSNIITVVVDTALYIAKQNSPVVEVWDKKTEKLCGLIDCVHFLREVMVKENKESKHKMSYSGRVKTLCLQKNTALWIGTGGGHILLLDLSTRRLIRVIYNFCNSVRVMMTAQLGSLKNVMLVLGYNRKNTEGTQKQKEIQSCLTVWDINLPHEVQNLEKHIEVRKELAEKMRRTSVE

O=S1(=O)CCN(c2ccc3c(c2)-n2ncc(Cl)c2N=C(c2c(F)cccc2F)N3)CC1
IC50: < 0.05 µM

Fc1cccc(F)c1C1=Nc2c(Cl)cnn2-c2cc(-c3cn[nH]c3)ccc2N1
IC50: < 0.05 µM

CC(C)S(=O)(=O)NC(=O)c1ccc2c(c1)-n1ncc(Cl)c1N=C(c1c(F)cccc1F)N2
IC50: > 0.2 µM

Fc1cccc(F)c1C1=Nc2c(Cl)cnn2-c2cc(N3CCOCC3)cnc2N1
IC50: < 0.05 µM

OC1CCN(c2ccc3c(c2)-n2ncc(Cl)c2N=C(c2c(F)cccc2F)N3)C1 (racemic) [1-[3-chloro-5-(2,6-difluorophenyl)-6H-pyrazolo[1,5-a][1,3,5]benzotriazepin-9-yl]pyrrolidin-3-ol]
IC50: < 0.05 µM

COC1CCN(c2ccc3c(c2)-n2ncc(Cl)c2N=C(c2c(F)cccc2F)N3)C1 (racemic) [3-chloro-5-(2,6-difluorophenyl)-9-(3-methoxypyrrolidin-1-yl)-6H-pyrazolo[1,5-a][1,3,5]benzotriazepine]
IC50: < 0.05 µM

Fc1cccc(F)c1C1=Nc2c(Cl)cnn2-c2cc(N3CC4CC3CO4)ccc2N1 (racemic) [5-(3-chloro-5-(2,6-difluorophenyl)-6H-benzo[f]pyrazolo[1,5-a][1,3,5]triazepin-9-yl)-2-oxa-5-azabicyclo[2.2.1]heptane]
IC50: < 0.05 µM

Fc1cccc(F)c1C1=Nc2c(Cl)cnn2-c2cc(N3CCC34COC4)ccc2N1 [1-[3-chloro-5-(2,6-difluorophenyl)-6H-pyrazolo[1,5-a][1,3,5]benzotriazepin-9-yl]-6-oxa-1-azaspiro[3.3]heptane]
IC50: < 0.05 µM

Fc1cccc(F)c1C1=Nc2c(Cl)cnn2-c2cc(N3CC4CCC(C3)O4)ncc2N1 [3-(3-Chloro-5-(2,6-difluorophenyl)-6H-pyrazolo[1,5-a]pyrido[3,4-f][1,3,5]triazepin-9-yl)-8-oxa-3-azabicyclo[3.2.1]octane]
IC50: < 0.05 µM

Fc1cccc(F)c1C1=Nc2c(Cl)cnn2-c2cc(N3CC4CC(C3)O4)ccc2N1 [3-[3-chloro-5-(2,6-difluorophenyl)-6H-pyrazolo [1,5-a][1,3,5]benzotriazepin-9-yl]-6-oxa-3-azabicyclo [3.1.1]heptane]
IC50: < 0.05 µM

O=C(NO)c1ccc2c(c1)-n1ncc(Cl)c1N=C(c1c(F)cccc1F)N2 [3-chloro-5-(2,6-difluorophenyl)-6H-pyrazolo[1,5-a][1,3,5]benzotriazepine-9-carbohydroxamic acid]
IC50: < 0.05 µM

NC(=O)c1ccc2c(c1)-n1ncc(Cl)c1N=C(c1c(F)cccc1F)N2 [3-chloro-5-(2,6-difluorophenyl)-6H-pyrazolo[1,5-a][1,3,5]benzotriazepine-9-carboxamide]
IC50: < 0.05 µM

Cn1cc(-c2ccc3c(c2)-n2ncc(Cl)c2N=C(c2c(F)cccc2F)N3)cn1 [3-chloro-5-(2,6-difluorophenyl)-9-(1-methylpyrazol-4-yl)-6H-pyrazolo[1,5-a][1,3,5]benzotriazepine]
IC50: < 0.05 µM

Fc1cccc(F)c1C1=Nc2c(Cl)cnn2-c2cc(N3CCC(F)(F)C3)ccc2N1 [3-chloro-5-(2,6-difluorophenyl)-9-(3,3-difluoropyrrolidin-1-yl)-6H-pyrazolo[1,5-a][1,3,5]benzotriazepine]
IC50: < 0.05 µM

Fc1cccc(F)c1C1=Nc2c(Cl)cnn2-c2cc(N3CC(F)C3)ccc2N1 [3-chloro-5-(2,6-difluorophenyl)-9-(3-fluoroazetidin-1-yl)-6H-pyrazolo[1,5-a][1,3,5]benzotriazepine]
IC50: < 0.05 µM

COC1CN(c2ccc3c(c2)-n2ncc(Cl)c2N=C(c2c(F)cccc2F)N3)C1 [3-chloro-5-(2,6-difluorophenyl)-9-(3-methoxyazetidin-1-yl)-6H-pyrazolo[1,5-a][1,3,5]benzotriazepine]
IC50: < 0.05 µM

CN1CCN(c2ccc3c(c2)-n2ncc(Cl)c2N=C(c2c(F)cccc2F)N3)CC1 [3-chloro-5-(2,6-difluorophenyl)-9-(4-methylpiperazin-1-yl)-6H-pyrazolo[1,5-a][1,3,5]benzotriazepine]
IC50: < 0.05 µM
